Drawing on US11623924B2, “Modulators of alpha-1 antitrypsin” (Vertex Pharmaceuticals Incorporated, priority 2018, dated 2023), this text covers EC50 for 28 compounds.

Molecules are shown by their SMILES.

T1 sequence (P01009 25-418 E366K): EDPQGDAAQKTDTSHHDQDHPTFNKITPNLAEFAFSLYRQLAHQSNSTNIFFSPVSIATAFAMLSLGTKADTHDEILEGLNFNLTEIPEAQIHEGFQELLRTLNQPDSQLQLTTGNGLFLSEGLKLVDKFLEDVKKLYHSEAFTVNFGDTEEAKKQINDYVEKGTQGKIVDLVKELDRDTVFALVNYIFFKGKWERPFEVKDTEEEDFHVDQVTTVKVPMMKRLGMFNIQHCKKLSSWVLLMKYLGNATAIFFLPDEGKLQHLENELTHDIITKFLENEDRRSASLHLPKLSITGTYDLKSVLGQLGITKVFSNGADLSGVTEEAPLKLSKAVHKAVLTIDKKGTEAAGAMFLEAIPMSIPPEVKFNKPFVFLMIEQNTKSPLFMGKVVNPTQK

This experiment has as its target T1, NL20 human bronchial epithelial cells expressing human Z-AAT (Homo sapiens, UniProt P01009, E366K).
T1 construct: expressed in transfected cells; host or cells: NL20 human bronchial epithelial cells (NL20-SI line, doxycycline added)
In words: AAT Function Assay (MSD Assay NL20-SI Cell Line). Particulars: functionally active AAT (AAT-hNE complex) in supernatant of NL20 cells expressing human Z-AAT; read-out: NL20 Func. (EC50). It is filed as cell-based. The method, then: A. AAT Function Assay (MSD Assay NL20-SI Cell Line)
Alpha-1 antitrypsin (AAT) is a SERPIN (serine protease inhibitor) that inactivates enzymes by binding to them covalently. This assay measured the amount of functionally active AAT in a sample in the presence of the disclosed compounds 1-215 by determining the ability of AAT to form an irreversible complex with human neutrophil Elastase (hNE). In practice, the sample (cell supernatant, blood sample, or other) was incubated with excess hNE to allow AAT-Elastase complex to be formed with all functional AAT in the sample. This complex was then captured to a microplate coated with an anti-AAT antibody. The complex captured to the plate was detected with a labeled anti-Elastase antibody and quantitated using a set of AAT standards spanning the concentration range present in the sample. Meso Scale Discovery (MSD) plate reader, Sulfo-tag labeling, and microplates were used to provide high sensitivity and wide dynamic range.
• 1. Harvest NL20 human bronchial epithelial cells expressing human Z-AAT in OptiMEM™ containing Pen/Strep (P/S) • 2. Seed at 16,000 cells/well in 30 μL (384 well plate) • 3. Centrifuge plates briefly up to speed (1200 rpm) and place into 37° C. incubator overnight Day 2: Compound Addition and Coating Plates with Capture Antibody Compound Addition: • 1. Dispense 40 μL of OptiMEM™ (P/S) with doxycycline (1:1000 stock=0.1 μM final) to each well of the compound plate using a multidrop Combi in hood • 2. Remove cell plate from incubator, flip/blot and take immediately to Bravo to transfer compounds • 3. Return plates to incubator overnight Coat MSD Plates • 1. Dilute capture antibody (Polyclonal Goat anti-AAT) to 5 μg/mL (1:200) in PBS (no BSA). • 2. Dispense 25 μL of diluted capture antibody into all wells of MSD 384-well High Bind plate using the Multidrop equipped with a standard cassette. • 3. Incubate overnight at 4° C. Prepare Blocker A (BSA) Solutions • 1. Prepare solution of 5% MSD Blocker A (BSA) following the manufacturer's instructions. • 2. Further dilute the 5% MSD Blocker A in PBS to 1% (Blocker A) as needed. Day 3: Run MSD Assay
Block Plates • 1. Wash plate 1× with 50 μL Wash buffer (PBS+0.5% Tween 20), and adds 35 μL 5% Block A buffer to block non-specific binding on washer dispenser • 2. Rotate plates on shaker for 1 hour at 600 rpm
Prepare M-AAT Standards • 1. Dilute M-AAT stock to 1.6 μg/mL in 1% BSA Blocker A (Stock in −70° C.); then prepare 12×1:2 serial dilutions in 1% Blocker A • 2. The top starting final concentration on MSD plate is 320 ng/mL. These dilutions correspond to a final concentration of 320, 160, 80, 40, 20, 10, 5, 2.5, 1.25, 0.625, 0.312, 0.156 ng/mL.
Dilution Plate • 1. Add 80 μL of 1% Assay buffer to all wells except columns 1/24 (standards) with Multidrop Combi • 2. Add diluted standards to columns 1 and 24 • 3. Centrifuge dilution plates 1200 rpm briefly
Cell Plate • 1. Aspirate columns which will have the standards from the cell plates in the hood using 16-pin aspirator
Prepare Human Neutrophil Elastase (hNE) • 1. Prepare 1 μg/mL Human Neutrophil Elastase by diluting in 1% Blocker A. • a. Small 100 μg vial—add 1 mL PBS (100 μg/mL) • i. This can then be diluted 1:100 in 1% Assay Buffer for a final 1 μg/mL concentration
MSD—Add hNE (20 μL/well) • 1. After the MSD plate has blocked for at least 1 hour, wash plate 1× with 50 μL Wash buffer (PBS+0.5% Tween 20) and then add 20 μL hNE to each well
Bravo—Cell Plate—Dilution Plate—MSD Plate
Using the Bravo aspirate 10 μL from the cell plate, transfer to the dilution plate (9-fold dilution)
• 1. Mix 25 μL 3×, then aspirate 5 μL, transfer to MSD plate (5-fold dilution) • 2. Mix 10 μL 3×. Total dilution is 45 fold. • 3. Shake plates at 600 rpm for 1.5 hours
Add Functional detection hNE antibody • 1. Wash plate 1× with wash buffer • 2. […]
In general, EC50 refers to the concentration needed to bring the measured effect to its halfway point. For the compound `NC(=O)CCc1c(C2CCOCC2)n(-c2ccc(F)cc2)c2cc3cn[nH]c3cc12` [Compound 166, 3-[5-(4-fluorophenyl)-6-tetrahydropyran-4-yl-1H-pyrrolo[2,3-f]indazol-7-yl]propanamide], the EC50 was greater than 3 µM. Under `O=C(O)[C@H]1C[C@H](c2c(C3CCOCC3)n(-c3ccc(F)c(F)c3)c3cc4cn[nH]c4cc32)C1` [Compound 66] stands 1.16 to 3 µM; under `[2H]C([2H])(CC(=O)O)c1c(C(C)C)n(-c2ccc(F)cc2)c2cc3cn[nH]c3cc12` [Compound 169, 3,3-dideuterio-3-[5-(4-fluorophenyl)-6-isopropyl-1H-pyrrolo[2,3-f]indazol-7-yl]propanoic Acid], 1.16 to 3 µM. Under `O=C(O)C1CC(Cc2c(C3CCOCC3)n(-c3ccc(F)c(Cl)c3)c3cc4cn[nH]c4cc23)C1` (single isomer, unassigned) [Compound 80] stands less than 1.16 µM. Under `Cc1cc(-n2c(C3CCOCC3)c(CC3CC(C(=O)O)C3)c3cc4[nH]ncc4cc32)ccc1F` (mixture of isomers) [Compound 96] stands less than 1.16 µM; under `O=C(O)C1CC2(C1)CC(c1c(C3CCOC3)n(-c3ccc(F)cc3)c3cc4cn[nH]c4cc13)C2` (single isomer, unassigned) [Compound 142, 6-[5-(4-fluorophenyl)-6-tetrahydrofuran-3-yl-1H-pyrrolo[2,3-f]indazol-7-yl]spiro[3.3]heptane-2-carboxylic Acid], greater than 3 µM.

With `CC(C)c1c(CCC(=O)O)c2cc3nn[nH]c3cc2n1-c1ccc(F)cc1` [Compound 214, 3-(5-(4-fluorophenyl)-6-isopropyl-3,5-dihydro-[1,2,3]triazolo[4,5-f]indol-7-yl)propanoic Acid], the EC50 was greater than 3 µM. The result for `[H][C@]1(C(=O)O)C[C@]2(C1)C[C@@]([H])(c1c(C3CCOCC3)n(-c3ccc(F)cc3)c3cc4cn[nH]c4cc31)C2` (single isomer, unassigned) [Compound 109] reads 1.16 to 3 µM; that for `COCCc1c(C(C)(C)COC)n(-c2ccc(F)cc2)c2cc3cn[nH]c3cc12` [Compound 178], 1.16 to 3 µM; that for `Cc1cc(-n2c(C(C)C)c(CC(C)C(=O)O)c3cc4[nH]ncc4cc32)ccc1F` (racemic) [Compound 19], less than 1.16 µM. The result for `Cc1c2[nH]ncc2cc2c1c(C1CC3(CC(C(=O)O)C3)C1)c(C1CCOCC1)n2-c1ccc(F)c(F)c1` (stereo not shown) [Compound 131, 6-[5-(3,4-difluorophenyl)-8-methyl-6-tetrahydropyran-4-yl-1H-pyrrolo[2,3-f]indazol-7-yl]spiro[3.3]heptane-2-carboxylic acid] reads less than 1.16 µM. As to `C[C@]1(C(=O)O)C[C@H](c2c(C3CCOCC3)n(-c3ccc(F)cc3)c3cc4cn[nH]c4cc32)C1` (single isomer, unassigned) [Compound 115], the EC50 fell in the range of 1.16 to 3 µM. The result for `O=S1(=O)CCCN1CCCc1c(C2CCOCC2)n(-c2ccc(F)cc2)c2cc3cn[nH]c3cc12` [Compound 150] reads 1.16 to 3 µM; that for `O=C(O)C1CC2(C1)CC(c1c(C3CCOCC3)n(-c3ccc(F)c(F)c3)c3cc4cn[nH]c4cc13)C2` (single isomer, unassigned) [Compound 67], less than 1.16 µM; that for `Cc1cc(-n2c(C(C)C)c(C3CC4(CC(C(=O)O)C4)C3)c3cc4[nH]nc(C)c4cc32)ccc1F` (single isomer, unassigned) [Compound 58, 6-[5-(4-fluoro-3-methyl-phenyl)-6-isopropyl-3-methyl-1H-pyrrolo[2,3-f]indazol-7-yl]spiro[3.3]heptane-2-carboxylic acid], 1.16 to 3 µM.

Take `O=C(O)C1CC(Cc2c(C3CCOCC3)n(-c3ccc(F)c(Cl)c3)c3cc4cn[nH]c4cc23)C1` (mixture of isomers) [Compound 79]: the EC50 was 1.16 to 3 µM.

For the compound `CC(C)c1c(C2CNC2)c2cc3[nH]ncc3cc2n1-c1ccc(F)cc1` [Compound 174, 7-(azetidin-3-yl)-5-(4-fluorophenyl)-6-isopropyl-1H-pyrrolo[2,3-f]indazole], the EC50 was greater than 3 µM.

For the compound `O=C(O)[C@H]1C[C@@H](Cc2c(C3CCOCC3)n(-c3ccc(F)c(F)c3)c3cc4cn[nH]c4cc23)C1` (single isomer, unassigned) [Compound 72], the EC50 fell in the range of 1.16 to 3 µM. For `CC(=O)N1CCC(Cc2c(C3CCOCC3)n(-c3ccc(F)cc3)c3cc4cn[nH]c4cc23)C1` (stereo in doubt) [Compound 213, 1-[(3S)-3-[[5-(4-fluorophenyl)-6-tetrahydropyran-4-yl-1H-pyrrolo[2,3-f]indazol-7-yl]methyl]pyrrolidin-1-yl]ethanone], the EC50 was greater than 3 µM. For the compound `COCC(C)(C)c1c(CCCNC(N)=O)c2cc3[nH]ncc3cc2n1-c1ccc(F)cc1` [Compound 180], the EC50 lay in the range of 1.16 to 3 µM. Under `Cc1cc(-n2c(C(C)C)c(S(C)(=O)=O)c3cc4[nH]nnc4cc32)ccc1F` [Compound 199, 5-(4-fluoro-3-methyl-phenyl)-6-isopropyl-7-methylsulfonyl-1H-pyrrolo[2,3-f]benzotriazole] stands greater than 3 µM; under `CCS(=O)(=O)CCc1c(C2CCOCC2)n(-c2ccc(F)cc2)c2cc3cn[nH]c3cc12` [Compound 158, 7-(2-ethylsulfonylethyl)-5-(4-fluorophenyl)-6-tetrahydropyran-4-yl-1H-pyrrolo[2,3-f]indazole], greater than 3 µM; under `Cc1cc(-n2c(C(C)C)c(C3CC4(CC(C(=O)O)C4)C3)c3cc4[nH]nc(C)c4cc32)ccc1F` (racemic) [Compound 56, 6-[5-(4-fluoro-3-methyl-phenyl)-6-isopropyl-3-methyl-1H-pyrrolo[2,3-f]indazol-7-yl]spiro[3.3]heptane-2-carboxylic acid], 1.16 to 3 µM.

Turning to `CC(C)(CC#N)c1c(CCC(N)=O)c2cc3[nH]ncc3cc2n1-c1ccc(F)cc1` [Compound 191, 3-[6-(2-cyano-1,1-dimethyl-ethyl)-5-(4-fluorophenyl)-1H-pyrrolo[2,3-f]indazol-7-yl]propanamide], the EC50 was greater than 3 µM. In the case of `CC(C)c1c(-c2ccc(F)cc2)c2cc3cn[nH]c3cc2n1CCC(=O)O` [Compound 205, 3-[5-(4-fluorophenyl)-6-isopropyl-1H-pyrrolo[3,2-f]indazol-7-yl]propanoic Acid], the EC50 was in the range of 1.16 to 3 µM. The result for `Cc1cc(-n2c(C(C)C)c(C3CC3C(=O)O)c3cc4[nH]ncc4cc32)ccc1F` (single isomer, unassigned) [Compound 13, 2-[5-(4-fluoro-3-methyl-phenyl)-6-isopropyl-1H-pyrrolo[2,3-f]indazol-7-yl]cyclopropanecarboxylic acid] reads less than 1.16 µM.

On to `[2H]C(C(=O)O)C([2H])([2H])c1c(C(C)C)n(-c2ccc(F)cc2)c2cc3cn[nH]c3cc12` (stereo not shown) [Compound 168, 2,3,3-trideuterio-3-[5-(4-fluorophenyl)-6-isopropyl-1H-pyrrolo[2,3-f]indazol-7-yl]propanoic acid], for which the EC50 lay within 1.16 to 3 µM. Consider `C[C@H](O)C(=O)N1CC2(CC(c3c(C4CCOCC4)n(-c4ccc(F)c(F)c4)c4cc5cn[nH]c5cc34)C2)C1` [Compound 184, (2S)-1-[6-[5-(3,4-difluorophenyl)-6-tetrahydropyran-4-yl-1H-pyrrolo[2,3-f]indazol-7-yl]-2-azaspiro[3.3]heptan-2-yl]-2-hydroxy-propan-1-one], for which the EC50 was greater than 3 µM.
